Results on 14 molecules are retold here after patent US9125913B2, “Bcl-2-selective apoptosis-inducing agents for the treatment of cancer and immune diseases” (AbbVie Inc., priority 2008, dated 2015).

Bounds are passed on as bounds.

The assay concerns GST-Bcl-2. Briefly: TR-FRET binding assay, Bcl-2. Particulars: TR-FRET Ki values. In outline: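 Compounds serially diluted in DMSO from 50 μM (2× starting concentration, 10% DMSO), mixed with GST-tagged protein, F-Bak peptide probe and Tb-labeled antibody, incubated 3 h at room temperature.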
With `CC1(C)CCC(CN2CCN(c3ccc(C(=O)NS(=O)(=O)c4cnc(OCC5CCOCC5)c(C#N)c4)c(Oc4cccc5[nH]ccc45)c3)CC2)=C(c2ccc(Cl)cc2)C1` [EXAMPLE 386, 4-(4-{[2-(4-chlorophenyl)-4,4-dimethylcyclohex-1-en-1-yl]methyl}piperazin-1-yl)-N-{[5-cyano-6-(tetrahydro-2H-pyran-4-ylmethoxy)pyridin-3-yl]sulfonyl}-2-(1H-indol-4-yloxy)benzamide], the “Binding selectivity ratio (Bcl-XL Ki/Bcl-2 Ki)” value (“Binding selectivity ratio” below) stood at 494.5.
`CC1(C)CCC(CN2CCN(c3ccc(C(=O)NS(=O)(=O)c4cnc(OCC5CCOCC5)c(Cl)c4)c(Oc4cccc5[nH]ccc45)c3)CC2)=C(c2ccc(Cl)cc2)C1` [EXAMPLE 387, 4-(4-{[2-(4-chlorophenyl)-4,4-dimethylcyclohex-1-en-1-yl]methyl}piperazin-1-yl)-N-{[5-chloro-6-(tetrahydro-2H-pyran-4-ylmethoxy)pyridin-3-yl]sulfonyl}-2-(1H-indol-4-yloxy)benzamide]: the “Binding selectivity ratio” value worked out at 1723.4.
On to `CC1(C)CCC(CN2CCN(c3ccc(C(=O)NS(=O)(=O)c4cnc(OCCN5CCOCC5)c(C#N)c4)c(Oc4ccc5[nH]ccc5c4)c3)CC2)=C(c2ccc(Cl)cc2)C1` [EXAMPLE 388, 4-(4-{[2-(4-chlorophenyl)-4,4-dimethylcyclohex-1-en-1-yl]methyl}piperazin-1-yl)-N-{[5-cyano-6-(2-morpholin-4-ylethoxy)pyridin-3-yl]sulfonyl}-2-(1H-indol-5-yloxy)benzamide], for which the “Binding selectivity ratio” value amounted to 185.1.
Regarding `CC1(C)CCC(CN2CCN(c3ccc(C(=O)NS(=O)(=O)c4ccc(OC5CCN(C6CCOCC6)CC5)c([N+](=O)[O-])c4)c(Oc4ccc5[nH]ccc5c4)c3)CC2)=C(c2ccc(Cl)cc2)C1` [EXAMPLE 389, 4-(4-{[2-(4-chlorophenyl)-4,4-dimethylcyclohex-1-en-1-yl]methyl}piperazin-1-yl)-2-(1H-indol-5-yloxy)-N-({3-nitro-4-[(1-tetrahydro-2H-pyran-4-ylpiperidin-4-yl)oxy]phenyl}sulfonyl)benzamide], the “Binding selectivity ratio” value is given as 685.5.
For `CC1(C)CCC(CN2CCN(c3ccc(C(=O)NS(=O)(=O)c4ccc(OCC#CCN5CCOCC5)c([N+](=O)[O-])c4)c(Oc4ccc5[nH]ccc5c4)c3)CC2)=C(c2ccc(Cl)cc2)C1` [EXAMPLE 390, 4-(4-{[2-(4-chlorophenyl)-4,4-dimethylcyclohex-1-en-1-yl]methyl}piperazin-1-yl)-2-(1H-indol-5-yloxy)-N-({4-[(4-morpholin-4-ylbut-2-ynyl)oxy]-3-nitrophenyl}sulfonyl)benzamide], the “Binding selectivity ratio” value was 339.6.
Turning to `C#Cc1cc(S(=O)(=O)NC(=O)c2ccc(N3CCN(CC4=C(c5ccc(Cl)cc5)CC(C)(C)CC4)CC3)cc2Oc2cccc3[nH]ccc23)cnc1OCC1CCOCC1` [EXAMPLE 391, 4-(4-{[2-(4-chlorophenyl)-4,4-dimethylcyclohex-1-en-1-yl]methyl}piperazin-1-yl)-N-{[5-ethynyl-6-(tetrahydro-2H-pyran-4-ylmethoxy)pyridin-3-yl]sulfonyl}-2-(1H-indol-4-yloxy)benzamide], the “Binding selectivity ratio” value is given as more than 186.4.
Regarding `CC1(C)CCC(CN2CCN(c3ccc(C(=O)NS(=O)(=O)c4cnc(OCCN5CCOCC5)c(C#N)c4)c(Oc4cccc5[nH]ccc45)c3)CC2)=C(c2ccc(Cl)cc2)C1` [EXAMPLE 392, 4-(4-{[2-(4-chlorophenyl)-4,4-dimethylcyclohex-1-en-1-yl]methyl}piperazin-1-yl)-N-{[5-cyano-6-(2-morpholin-4-ylethoxy)pyridin-3-yl]sulfonyl}-2-(1H-indol-4-yloxy)benzamide], the “Binding selectivity ratio” value worked out at 320.2.
The result for `CC1(C)CCC(CN2CCN(c3ccc(C(=O)NS(=O)(=O)c4cnc(OCC5(F)CCOCC5)c(C#N)c4)c(Oc4cccc5[nH]ccc45)c3)CC2)=C(c2ccc(Cl)cc2)C1` [EXAMPLE 393, 4-(4-{[2-(4-chlorophenyl)-4,4-dimethylcyclohex-1-en-1-yl]methyl}piperazin-1-yl)-N-({5-cyano-6-[(4-fluorotetrahydro-2H-pyran-4-yl)methoxy]pyridin-3-yl}sulfonyl)-2-(1H-indol-4-yloxy)benzamide] reads 1110.
In the case of `COc1ccc(Nc2ccc(S(=O)(=O)NC(=O)c3ccc(N4CCN(CC5=C(c6ccc(Cl)cc6)CC(C)(C)CC5)CC4)cc3Oc3ccc4[nH]ccc4c3)cc2[N+](=O)[O-])cc1O` [EXAMPLE 394, 4-(4-{[2-(4-chlorophenyl)-4,4-dimethylcyclohex-1-en-1-yl]methyl}piperazin-1-yl)-N-({4-[(3-hydroxy-4-methoxyphenyl)amino]-3-nitrophenyl}sulfonyl)-2-(1H-indol-5-yloxy)benzamide] it was more than 263262.863980854.
The result for `CN1CCC(Nc2ccc(S(=O)(=O)NC(=O)c3ccc(N4CCN(CC5=C(c6ccc(Cl)cc6)CC(C)(C)CC5)CC4)cc3Oc3cccc4c3CCN4)cc2[N+](=O)[O-])CC1` [EXAMPLE 395, 4-(4-{[2-(4-chlorophenyl)-4,4-dimethylcyclohex-1-en-1-yl]methyl}piperazin-1-yl)-2-(2,3-dihydro-1H-indol-4-yloxy)-N-({4-[(1-methylpiperidin-4-yl)amino]-3-nitrophenyl}sulfonyl)benzamide] reads 23.62; that for `CN1CCC(Nc2ccc(S(=O)(=O)NC(=O)c3ccc(N4CCN(CC5=C(c6ccc(Cl)cc6)CC(C)(C)CC5)CC4)cc3Nc3cccnc3)cc2[N+](=O)[O-])CC1` [EXAMPLE 396, 4-(4-{[2-(4-chlorophenyl)-4,4-dimethylcyclohex-1-en-1-yl]methyl}piperazin-1-yl)-N-({4-[(1-methylpiperidin-4-yl)amino]-3-nitrophenyl}sulfonyl)-2-(pyridin-3-ylamino)benzamide], more than 5706; that for `CC1(C)CCC(CN2CCN(c3ccc(C(=O)NS(=O)(=O)c4ccc(NC5CCN(C6CCOCC6)CC5)c([N+](=O)[O-])c4)c(Nc4cccnc4)c3)CC2)=C(c2ccc(Cl)cc2)C1` [EXAMPLE 397, 4-(4-{[2-(4-chlorophenyl)-4,4-dimethylcyclohex-1-en-1-yl]methyl}piperazin-1-yl)-N-({3-nitro-4-[(1-tetrahydro-2H-pyran-4-ylpiperidin-4-yl)amino]phenyl}sulfonyl)-2-(pyridin-3-ylamino)benzamide], more than 28730.6285913286.
Turning to `CC1(C)CCC(CN2CCN(c3ccc(C(=O)NS(=O)(=O)c4ccc(NC5CCN(C6CCOCC6)CC5)c([N+](=O)[O-])c4)c(Oc4cccnc4)c3)CC2)=C(c2ccc(Cl)cc2)C1` [EXAMPLE 398, 4-(4-{[2-(4-chlorophenyl)-4,4-dimethylcyclohex-1-en-1-yl]methyl}piperazin-1-yl)-N-({3-nitro-4-[(1-tetrahydro-2H-pyran-4-ylpiperidin-4-yl)amino]phenyl}sulfonyl)-2-(pyridin-3-yloxy)benzamide], the “Binding selectivity ratio” value stood at 67.69.
In the case of `CC1(C)CCC(CN2CCN(c3ccc(C(=O)NS(=O)(=O)c4ccc(NCC5CCOCC5)c([N+](=O)[O-])c4)c(Oc4cccc5c4CCNC5)c3)CC2)=C(c2ccc(Cl)cc2)C1` [EXAMPLE 399, 4-(4-{[2-(4-chlorophenyl)-4,4-dimethylcyclohex-1-en-1-yl]methyl}piperazin-1-yl)-N-({3-nitro-4-[(tetrahydro-2H-pyran-4-ylmethyl)amino]phenyl}sulfonyl)-2-(1,2,3,4-tetrahydroisoquinolin-5-yloxy)benzamide], the “Binding selectivity ratio” value is more than 225764.520763495.
